Each structure is given as a SMILES string.

For this assay, the system named is HLA-DR2. The following applies: pH 6.
Experimental: In order to compare the binding of various MBP peptides to DR2, purified DR2 at a concentration of 20 μg/ml was incubated with 50-fold molar excess of Bt-MBP peptides for 72 hours at varying pH, ranging from pH 5-10 binding buffer at 37° C. […] Monoclonal antibody against HLA-DR2 at a concentration of 20 μg/ml and BSA-biotin (with 0.014-1.80 pmoles (0.117-15 ng), were coated in 96-well microtiter plates (Nunc poly-Sorb, Baxter) overnight at 4° C. Plates were blocked with 1% fish gelatin. Prepared HLA-DR2-biotin peptide complexes were applied to the wells in duplicates ranging from 12.5 ng-200 ng (0.21-3.32 pmoles) in appropriate dilution buffers and incubated for 2 hours at room temperature. The wells were washed three times with PBS containing 0.01% Tween-20 to remove unbound peptide. Bound biotinylated peptides were detected colorimetrically using alkaline phosphatase conjugated streptavidin and p-nitrophenyl phosphate (disodium) in 0.1M diethnolamine as a substrate. Wells were read at 405 nm in microliter plate reader (Molecular Devices). The percent of DR2 with bound peptide was calculated using standard BSA-biotin (eight biotin molecules per BSA). Purified HLA-DR2 used in this study contains a mixture of DRB5*0101 and DRB1*1501 beta chains.
In the first experiment, the binding of MBP(84-102) peptide to purified DR2 was compared with MBP(83-102)Y83 peptide at various pH.
Regarding `CC[C@H](C)[C@H](NC(=O)[C@H](CC(N)=O)NC(=O)[C@H](CCCCN)NC(=O)[C@H](Cc1ccccc1)NC(=O)[C@H](Cc1ccccc1)NC(=O)[C@H](Cc1c[nH]cn1)NC(=O)[C@@H](NC(=O)[C@@H](NC(=O)[C@@H]1CCCN1C(=O)[C@H](CC(N)=O)NC(=O)[C@H](CCC(=O)O)NC(=O)[C@H](CC(=O)O)NC(=O)[C@H](C)NC(=O)CCCC[C@@H]1SC[C@@H]2NC(=O)N[C@@H]21)C(C)C)C(C)C)C(=O)N[C@H](C(=O)N[C@H](C(=O)N1CCC[C@H]1C(=O)N[C@@H](CCCNC(=N)N)C(=O)N[C@H](C(=O)N1CCC[C@H]1C(=O)N1CCC[C@H]1C(N)=O)[C@@H](C)O)[C@@H](C)O)C(C)C` [MBP(83-102)A83, Bt-ADENPVVHFF KNIVTPRTPP-NH2], the “percent of DR2 occupied with bound peptide” value was 100%.
Next, `CC[C@H](C)[C@H](NC(=O)[C@H](CC(N)=O)NC(=O)[C@H](CCCCN)NC(=O)[C@H](Cc1ccccc1)NC(=O)[C@H](Cc1ccccc1)NC(=O)[C@H](Cc1c[nH]cn1)NC(=O)[C@@H](NC(=O)[C@@H](NC(=O)[C@@H]1CCCN1C(=O)[C@H](CC(N)=O)NC(=O)[C@H](CCC(=O)O)NC(=O)[C@H](CC(=O)O)NC(=O)CCCC[C@@H]1SC[C@@H]2NC(=O)N[C@@H]21)C(C)C)C(C)C)C(=O)N[C@H](C(=O)N[C@H](C(=O)N1CCC[C@H]1C(=O)N[C@@H](CCCNC(=N)N)C(=O)N[C@H](C(=O)N1CCC[C@H]1C(=O)N1CCC[C@H]1C(N)=O)[C@@H](C)O)[C@@H](C)O)C(C)C` [MBP(84-102), Bt-DENPVVHFFK NIVTPRTPP-NH2, reference compound]: 45%; `CC[C@H](C)[C@H](NC(=O)[C@H](CC(N)=O)NC(=O)[C@H](CCCCN)NC(=O)[C@H](Cc1ccccc1)NC(=O)[C@H](Cc1ccccc1)NC(=O)[C@H](Cc1c[nH]cn1)NC(=O)[C@@H](NC(=O)[C@@H](NC(=O)[C@@H]1CCCN1C(=O)[C@H](CC(N)=O)NC(=O)[C@H](CCC(=O)O)NC(=O)[C@H](CC(=O)O)NC(=O)[C@H](CC(=O)O)NC(=O)CCCC[C@@H]1SC[C@@H]2NC(=O)N[C@@H]21)C(C)C)C(C)C)C(=O)N[C@H](C(=O)N[C@H](C(=O)N1CCC[C@H]1C(=O)N[C@@H](CCCNC(=N)N)C(=O)N[C@H](C(=O)N1CCC[C@H]1C(=O)N1CCC[C@H]1C(N)=O)[C@@H](C)O)[C@@H](C)O)C(C)C` [MBP(83-102)D83, Bt-DDENPVVHFF KNIVTPRTPP-NH2]: 55%; `CC[C@H](C)[C@H](NC(=O)[C@H](CC(N)=O)NC(=O)[C@H](CCCCN)NC(=O)[C@H](Cc1ccccc1)NC(=O)[C@H](Cc1ccccc1)NC(=O)[C@H](Cc1c[nH]cn1)NC(=O)[C@@H](NC(=O)[C@@H](NC(=O)[C@@H]1CCCN1C(=O)[C@H](CC(N)=O)NC(=O)[C@H](CCC(=O)O)NC(=O)[C@H](CC(=O)O)NC(=O)[C@H](Cc1ccccc1)NC(=O)CCCC[C@@H]1SC[C@@H]2NC(=O)N[C@@H]21)C(C)C)C(C)C)C(=O)N[C@H](C(=O)N[C@H](C(=O)N1CCC[C@H]1C(=O)N[C@@H](CCCNC(=N)N)C(=O)N[C@H](C(=O)N1CCC[C@H]1C(=O)N1CCC[C@H]1C(N)=O)[C@@H](C)O)[C@@H](C)O)C(C)C` [MBP(83-102)F83, Bt-FDENPVVHFF KNIVTPRTPP-NH2]: 12%.
Next, `CC[C@H](C)[C@H](NC(=O)[C@H](CC(N)=O)NC(=O)[C@H](CCCCN)NC(=O)[C@H](Cc1ccccc1)NC(=O)[C@H](Cc1ccccc1)NC(=O)[C@H](Cc1c[nH]cn1)NC(=O)[C@@H](NC(=O)[C@@H](NC(=O)[C@@H]1CCCN1C(=O)[C@H](CC(N)=O)NC(=O)[C@H](CCC(=O)O)NC(=O)[C@H](CC(=O)O)NC(=O)[C@H](CCC(N)=O)NC(=O)CCCC[C@@H]1SC[C@@H]2NC(=O)N[C@@H]21)C(C)C)C(C)C)C(=O)N[C@H](C(=O)N[C@H](C(=O)N1CCC[C@H]1C(=O)N[C@@H](CCCNC(=N)N)C(=O)N[C@H](C(=O)N1CCC[C@H]1C(=O)N1CCC[C@H]1C(N)=O)[C@@H](C)O)[C@@H](C)O)C(C)C` [MBP(83-102)Q83, Bt-QDENPVVHFF KNIVTPRTPP-NH2]: 40%.
In the case of `CC[C@H](C)[C@H](NC(=O)[C@H](CC(N)=O)NC(=O)[C@H](CCCCN)NC(=O)[C@H](Cc1ccccc1)NC(=O)[C@H](Cc1ccccc1)NC(=O)[C@H](Cc1c[nH]cn1)NC(=O)[C@@H](NC(=O)[C@@H](NC(=O)[C@@H]1CCCN1C(=O)[C@H](CC(N)=O)NC(=O)[C@H](CCC(=O)O)NC(=O)[C@H](CC(=O)O)NC(=O)[C@H](CCCCN)NC(=O)CCCC[C@@H]1SC[C@@H]2NC(=O)N[C@@H]21)C(C)C)C(C)C)C(=O)N[C@H](C(=O)N[C@H](C(=O)N1CCC[C@H]1C(=O)N[C@@H](CCCNC(=N)N)C(=O)N[C@H](C(=O)N1CCC[C@H]1C(=O)N1CCC[C@H]1C(N)=O)[C@@H](C)O)[C@@H](C)O)C(C)C` [MBP(83-102)K83, Bt-KDENPVVHFF KNIVTPRTPP-NH2], the “percent of DR2 occupied with bound peptide” value is on record as 75%.
